The values that follow come from ChEMBL document CHEMBL5241104, “Reactive metabolites of the anticonvulsant drugs and approaches to minimize the adverse drug reaction” (Eur J Med Chem, 2021).

Series [1] concerns Rattus norvegicus. Put plainly: Anticonvulsant activity against maximal electroshock induced seizure in Wistar albino rat assessed as reduction of time spent in stupor phase at 10 mg/kg,ip administrated for 30 mins by electroconvulsive therapy. In kind it is functional. Details: scale not given: the % may be the effect or the level left. The note with it: 0.5 h.
In series [2] the test system is Rattus norvegicus. Kind of series: Anticonvulsant activity against maximal electroshock induced seizure in Wistar albino rat assessed as reduction of time spent in flexion phase at 10 mg/kg,ip administrated for 30 mins by electroconvulsive therapy. As to conditions: 0.5 h. In kind it is functional. Further details: scale not given: the % may be the effect or the level left.

Series [3] relates to Rattus norvegicus. Kind of series: Anticonvulsant activity against maximal electroshock induced seizure in Wistar albino rat assessed as reduction of time spent in extension phase at 10 mg/kg,ip administrated for 30 mins by electroconvulsive therapy. Details: scale not given: the % may be the effect or the level left. As to conditions: 0.5 h. The format is functional. In general terms: Protection in the maximal electroshock model is a classic sign of anticonvulsant action.

The test system of series [4] is Rattus norvegicus. Kind of series: Anticonvulsant activity against maximal electroshock induced seizure in Wistar albino rat assessed as reduction of time spent in clonus phase at 10 mg/kg,ip administrated for 30 mins by electroconvulsive therapy. In kind it is functional. Further details: scale not given: the % may be the effect or the level left. The note with it: 0.5 h.

For series [5], the system named is Mus musculus. Put plainly: Anticonvulsant activity in Swiss albino mouse assessed as inhibition of maximal electroshock induced seizure at ip administration. The format is functional.
In series [6] the test system is Mus musculus. Kind of series: Anticonvulsant activity in Swiss mouse assessed as protection against Sc-PTZ induced seizure at ip administration. In kind it is functional.
For series [7], the system named is Rattus norvegicus. Kind of series: Anticonvulsant activity in Wistar rat assessed as protection against maximal electroshock induced seizure at po administration for 60 mins. In kind it is functional. As to conditions: 1 h.
Series [8] has as its system Rattus norvegicus. Put plainly: Anticonvulsant activity against maximal electroshock induced seizure in Wistar rat assessed as reduction of time spent in extension phase at 50 mg/kg,po administration. In kind it is functional.
Series [9] concerns Mus musculus. Kind of series: Anticonvulsant activity in Swiss albino mouse brain assessed as increase in GABA level at 30 mg/kg,ip measured after 7 days of post-administration by spectrophotometric method. The format is functional. As to conditions: time 7 day.
In series [10] the test system is Mus musculus. Kind of series: Anticonvulsant activity in Swiss albino mouse brain assessed as increase in GABA level at 30 mg/kg,ip measured after 2 hrs of post-administration by spectrophotometric method. The format is functional.
For series [11], the system named is Mus musculus. Kind of series: Anticonvulsant activity in Swiss albino mouse assessed as protection against maximal electroshock induced seizure at ip administration. In kind it is functional.
Series [12] deals with Mus musculus. Put plainly: Anticonvulsant activity in Swiss albino mouse assessed as protection against Sc-PTZ induced seizure at ip administration. The format is functional.
Series [13] is described as follows: Toxicity in Swiss albino mouse assessed as median toxicity dose at ip administration. As to conditions: in vivo. In kind it is organism-based.
Series [14] deals with Mus musculus. Kind of series: Anticonvulsant activity in Albino mouse assessed as protection against maximal electroshock induced seizure at ip administration for 30 mins. The format is functional. The note with it: 0.5 h.
Series [15] in a line: Toxicity in Swiss CD-1 mouse assessed as mortality at 100 mg/kg,ip. In kind it is organism-based. As to conditions: in vivo.
In series [16] the test system is Rattus norvegicus. Kind of series: Anticonvulsant activity in Wistar rat assessed as protection against maximal electroshock induced seizure at po administration. The format is functional.
Series [17] has as its system Rattus norvegicus. Kind of series: Anticonvulsant activity in Wistar rat assessed as protection against maximal electroshock induced seizure by measuring median effective dose at po administration. In kind it is functional.
A short description of series [18]: Protective index, ratio of TD50 for toxicity in Wistar rat assessed as median toxicity dose at po administration by rotorod test to ED50 for anticonvulsant activity in Wistar rat assessed as protection against maximal electroshock induced seizure at po administration. The format is organism-based. The note with it: in vivo, read-out: Ratio TD50/ED50.
The nature of series [19]: Displacement of 3[H]BTX from rat cerebral cortical synaptosomes voltage-sensitive sodium channel incubated for 1.5 hrs by scintillation counting analysis. In kind it is subcellular, Cerebral cortex, Synaptosome.
Series [20] is filed under the species Rattus norvegicus. Kind of series: Inhibition of sodium uptake in rat cerebral cortical synaptosomes at 30 uM incubated for 30 mins by scintillation counting analysis. The format is functional. The note with it: Cerebral cortex, Synaptosome.
The species named for series [21] is Rattus norvegicus. Put plainly: Inhibition of sodium uptake in rat cerebral cortical synaptosomes at 100 uM incubated for 30 mins by scintillation counting analysis. In kind it is functional. The note with it: Cerebral cortex, Synaptosome.
The species entered for series [22] is Rattus norvegicus. Put plainly: Inhibition of sodium uptake in rat cerebral cortical synaptosomes at 300 uM incubated for 30 mins by scintillation counting analysis. In kind it is functional. The note with it: Cerebral cortex, Synaptosome.
The test system of series [23] is Mus musculus. Put plainly: Anticonvulsant activity in mouse assessed as inhibition of maximal electroshock induced seizure at 200 mg/kg,po administration for 120 mins. In kind it is functional. The note with it: 2 h.
The test system of series [24] is Mus musculus. Kind of series: Anticonvulsant activity in Albino mouse assessed as protection against maximal electroshock induced seizure at ip administration. In kind it is functional.
Series [25] relates to Mus musculus. Kind of series: Anticonvulsant activity in Albino mouse assessed as protection against Sc-PTZ induced seizure at ip administration. The format is functional.
Series [26] is described as follows: Protective index, ratio of TD50 for toxicity in Albino mouse assessed as median neurotoxicity dose at ip administration by rotorod test to ED50 for anticonvulsant activity in Albino mouse assessed as protection against maximal electroshock induced seizure at ip administration. In kind it is organism-based. As to conditions: in vivo, read-out: Ratio TD50/ED50.

Series [27] is described as follows: Protective index, ratio of TD50 for toxicity in Albino mouse assessed as median neurotoxicity dose at ip administration by rotorod test to ED50 for anticonvulsant activity in Albino mouse assessed as protection against Sc-PTZ induced seizure at ip administration. The note with it: in vivo, read-out: Ratio TD50/ED50. The format is organism-based.
For series [28], the system named is Mus musculus. Kind of series: Anticonvulsant activity in Albino mouse brain assessed as increase in GABA level at 30 to 300 mg/kg,ip by spectrophotometric method. The format is functional. The note with it: dose 30-300 mg/kg.
In series [29] the test system is Mus musculus. Kind of series: Anticonvulsant activity in mouse assessed as protection against maximal electroshock induced seizure at ip administration for 5 mins. The format is functional.
The subject of series [30] is Mus musculus. Put plainly: Anticonvulsant activity in Swiss albino mouse assessed as protection against Sc-PTZ induced seizure at po administration. The format is functional.

Consider `CCN(CC)CN1C(=O)/C(=N\c2nnc(-c3cccc(Cl)c3Cl)c(/N=C3\C(=O)N(CN(CC)CC)c4ccc(Cl)cc43)n2)c2cc(Cl)ccc21`, for which the Activity in the series on Rattus norvegicus [1] is 30.21%; with Rattus norvegicus [2], 29.31%; with Rattus norvegicus [3], 47.87%; with Rattus norvegicus [4], 39.4%.
As for `CCOc1cc(/C=C2/N=C(c3ccccc3)c3cc([N+](=O)[O-])ccc3NC2=O)ccc1O`, in the series on Mus musculus [5], the “inhibition (INH)” value was 75%.
As for `O=C1NC(=O)C(c2ccccc2)(c2ccccc2)N1` [PHENYTOIN], the 50% effective dose (ED50) in the series on Mus musculus [6] was above 300 mg/kg.
As to `COc1ccc(C2CC(c3ccc(Cl)cc3)=Nc3ccccc3N2)cc1` (centres undefined), in the series on Rattus norvegicus [7], the Activity is on record as 52%. The Time in the series on Rattus norvegicus [8] was determined as 8.5 s.
On to `O=C1N=C(N2C(=S)N=C(c3ccc(F)cc3)CC2c2ccc(O)cc2)CNN1` (centres undefined), for which the Activity stood at 78.96 µg with Mus musculus [9] and 77.42 µg in the series on Mus musculus [10]. In addition, the figures for the ED50 in the series with Mus musculus [11] and with Mus musculus [12] were 22.5 mg/kg and 285 mg/kg, respectively. Further, the TD50 in series [13] is 389 mg/kg.
On to `CCCC(CCC)c1nnc(S)n1-c1ccccc1`, for which the TD50 in series [13] came to 371 mg/kg.
In the case of `O=C1Nc2ccc(Cl)cc2C(c2ccccc2)=NC1/N=N/c1ccc(F)cc1` (centres undefined), in the series with Mus musculus [14], the Activity was determined as 100%.
Turning to `O=C1/C(=N\c2nnc(-c3cccc(Cl)c3Cl)c(/N=C3\C(=O)N(CN4CCOCC4)c4ccc(Cl)cc43)n2)c2cc(Cl)ccc2N1CN1CCOCC1`, the Activity in the series with Rattus norvegicus [1] is 34.16%; in the series with Rattus norvegicus [2], 30.39%; with Rattus norvegicus [3], 48.95%; in the series with Rattus norvegicus [4], 40.55%.
`O=C1Nc2ccc(Cl)cc2C(c2ccccc2)=NC1/N=N/c1ccc(Cl)cc1` (centres undefined): in the series on Mus musculus [14], the Activity came out at 100%.
For `COc1ccccc1/C=C1/N=C(c2ccccc2)c2cc([N+](=O)[O-])ccc2NC1=O`, the “inhibition (INH)” value in the series on Mus musculus [5] came to 69%.
Consider `O=[N+]([O-])c1ccc(C2CC(c3ccc(Cl)cc3)=Nc3ccccc3N2)cc1` (centres undefined), for which the Activity in the series with Rattus norvegicus [7] is 56%. Also, in the series on Rattus norvegicus [8], the Time was 7.25 s.
Regarding `CCOc1ccccc1N1CCN(CCCN2CCCC2=O)CC1`, the mortality in series [15] is 25%.
Regarding `CC(=O)O[C@H]1Cc2ccccc2N(C(N)=O)c2ccccc21` [ESLICARBAZEPINE ACETATE], the Activity in the series with Rattus norvegicus [16] turned out to be 100%. Also, the ED50 in the series with Rattus norvegicus [17] is 4.7 mg/kg. Moreover, the selectivity ratio in series [18] came to 76.3. Besides, the half-inhibitory concentration (IC50) in series [19] is 113 µM. In addition, the inhibition came to 52.6% in the series listed under Rattus norvegicus [20], 73.4% in the series filed under Rattus norvegicus [21] and 95.6% in the series listed under Rattus norvegicus [22].
`CC(=O)O[C@@H]1Cc2ccccc2N(C(N)=O)c2ccccc21`: in the series on Rattus norvegicus [16], the Activity was 5.9%. In addition, in the series on Rattus norvegicus [17], the ED50 is 4.7 mg/kg. The selectivity ratio in [18] was above 91.7. For the same molecule, the IC50 in [19] turned out to be 141 µM. The values for the inhibition in the series listed under Rattus norvegicus [20], in the series listed under Rattus norvegicus [21] and in the series listed under Rattus norvegicus [22] were 17.9%, 57.7% and 73.2%, respectively.
Take `CC1(C)O[C@H]2CO[C@]3(COS(=O)(=O)N=[N+]=[N-])OC(C)(C)OC3[C@H]2O1` (some centres undefined): the inhibition in vivo at 200 mg/kg in the series with Mus musculus [23] was at least 80%.
With `CN(C)c1ccc(/C=N/Nc2nnc(-c3ccccc3)nc2Cc2cccc(Cl)c2)cc1`, the ED50 was 54.3 mg/kg in the series on Mus musculus [24] and 92 mg/kg in the series on Mus musculus [25]. Besides, the selectivity ratio in [26] came to 8.01; in series [27] it was 4.73. Besides, the Activity with Mus musculus [28] is reported as 39.7 mg.
Turning to `CN1C(=O)CN=C(c2ccccc2)c2cc(Cl)ccc21` [DIAZEPAM], in the series with Mus musculus [29], the Activity worked out at 87.5%.
For the molecule `CN1C(=O)CC(=O)N(c2ccccc2)c2cc(Cl)ccc21` [CLOBAZAM], in the series with Mus musculus [28], the Activity amounted to 54.9 mg.
Consider `COc1cc(/C=C2/N=C(c3ccccc3)c3cc([N+](=O)[O-])ccc3NC2=O)ccc1O`, for which the “inhibition (INH)” value in the series with Mus musculus [5] is reported as 71%.
Turning to `CCC(=O)CCCCCN1C(=O)NC2(C1=O)c1ccccc1-c1ccccc12`, in the series on Mus musculus [30], the Activity is 100%.
Regarding `O=C1CCCN1CC(O)CN1CCN(c2ccccc2O)CC1` (centres undefined), the mortality in series [15] was 14.2%.

For orientation: ED50 means the dose that gives a 50% effect, or the effect in half of the subjects. As usually defined, the TD50 is the 50% point of the dose-response relation for the toxic effect studied. Broadly, the mortality is the share of the test organisms that died. Broadly, the IC50 is the concentration that inhibits the measured activity by half. A word on the inhibition: it is how much of the control response was suppressed. The term inhibition in vivo denotes the relative decrease from the control value, in per cent.
